Assay results taken from publication PMC10341573, “Design, Synthesis, and Biological Evaluation of Novel Quinazolin-4(3H)-One-Based Histone Deacetylase 6 (HDAC6) Inhibitors for Anticancer Activity” (International Journal of Molecular Sciences, 2023).

Experiments:
HDAC4 = biological target: T1, HDAC4 (Homo sapiens, UniProt P56524); assay: HDAC enzyme activity assay (fluorogenic, Boc-Lys(trifluoroacetyl)-AMC), HDAC4; format: biochemical; details: class IIa HDAC4; mean ± SD, triplicate
T1 construct: catalytic domain of HDAC4 (T648-T1057, full length: UniProt P56524); made in house; host or cells: E. coli BL21(DE3), pET14b vector

HDAC6 = biological target: T2, HDAC6 (Homo sapiens, UniProt Q9UBN7); assay: HDAC enzyme activity assay (fluorogenic, Boc-Lys(acetyl)-AMC), HDAC6; format: biochemical; details: class IIb HDAC6; mean ± SD, triplicate
T2 construct: Full-length recombinant HDAC6 was purchased from BPS Bioscience; purchased BPS Bioscience
T2 sequence (Q9UBN7 1-1215): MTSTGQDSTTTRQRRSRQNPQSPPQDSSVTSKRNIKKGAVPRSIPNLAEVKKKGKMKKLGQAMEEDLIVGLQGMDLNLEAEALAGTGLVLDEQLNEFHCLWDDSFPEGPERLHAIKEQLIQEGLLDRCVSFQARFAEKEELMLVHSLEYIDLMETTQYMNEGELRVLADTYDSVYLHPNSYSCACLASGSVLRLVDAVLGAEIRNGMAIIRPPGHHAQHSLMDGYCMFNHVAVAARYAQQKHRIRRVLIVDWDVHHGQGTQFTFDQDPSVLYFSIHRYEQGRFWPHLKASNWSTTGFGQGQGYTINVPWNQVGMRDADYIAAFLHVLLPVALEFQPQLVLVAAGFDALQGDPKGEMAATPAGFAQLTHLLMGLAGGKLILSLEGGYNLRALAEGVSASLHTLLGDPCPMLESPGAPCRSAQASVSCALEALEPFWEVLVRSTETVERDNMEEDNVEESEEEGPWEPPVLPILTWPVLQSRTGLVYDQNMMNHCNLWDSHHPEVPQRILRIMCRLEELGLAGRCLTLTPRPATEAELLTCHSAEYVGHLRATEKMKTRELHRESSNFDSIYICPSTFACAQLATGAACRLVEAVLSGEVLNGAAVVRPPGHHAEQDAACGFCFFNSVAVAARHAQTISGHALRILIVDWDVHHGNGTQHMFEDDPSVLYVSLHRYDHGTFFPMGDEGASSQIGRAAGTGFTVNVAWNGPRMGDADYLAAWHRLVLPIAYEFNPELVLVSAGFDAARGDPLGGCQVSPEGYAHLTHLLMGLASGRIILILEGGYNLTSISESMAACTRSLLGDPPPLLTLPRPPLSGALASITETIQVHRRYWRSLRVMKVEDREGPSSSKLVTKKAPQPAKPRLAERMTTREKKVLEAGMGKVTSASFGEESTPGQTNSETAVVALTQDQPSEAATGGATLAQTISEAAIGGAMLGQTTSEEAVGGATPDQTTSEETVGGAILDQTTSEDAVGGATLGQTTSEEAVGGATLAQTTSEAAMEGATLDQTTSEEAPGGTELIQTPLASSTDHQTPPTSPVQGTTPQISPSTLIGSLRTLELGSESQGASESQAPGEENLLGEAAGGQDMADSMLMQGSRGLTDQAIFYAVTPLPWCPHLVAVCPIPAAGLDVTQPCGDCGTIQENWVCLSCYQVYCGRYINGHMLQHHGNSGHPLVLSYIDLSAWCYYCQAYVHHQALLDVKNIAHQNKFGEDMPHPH

MCF7 and HCT-116 cells = assay: Clonogenic assay; format: cell-based, human; details: 12–14 days
Experimental: To evaluate the effect of compound 5c on the cell survival of MCF7 and HCT-116 cells, a clonogenic assay was performed. Colony formation of MCF7 and HCT-116 cells was inhibited by compound 5c in a dose-dependent manner, compared to the control cells treated with DMSO (Figure 11).
MCF7 and HCT-116 cells were seeded in a six-well culture plate at a density of 500 cells/well. After cells adhered completely, they were incubated in the culture medium with DMSO, 0.1 μM 5c, and 1 μM 5c. The medium, along with the treatment, was replenished every 3 days for 12–14 days. The colonies formed were fixed with a 3:1 ratio of methanol and glacial acetic acid for 10 min. The wells were then washed with 1× PBS, and cells were stained with 0.5% v/v crystal violet solution for 10 min [55]. Excess stain was washed off in running water, and images were taken after proper drying. Colonies were counted visually or using ImageJ software, NIH (Version 1.53K). The stain taken up by the colonies was dissolved in 0.1% SDS, and absorbance was read at 540 nm. Graphs were plotted using GraphPad Prism 8.0.2.

T1 sequence (P56524 648-1057): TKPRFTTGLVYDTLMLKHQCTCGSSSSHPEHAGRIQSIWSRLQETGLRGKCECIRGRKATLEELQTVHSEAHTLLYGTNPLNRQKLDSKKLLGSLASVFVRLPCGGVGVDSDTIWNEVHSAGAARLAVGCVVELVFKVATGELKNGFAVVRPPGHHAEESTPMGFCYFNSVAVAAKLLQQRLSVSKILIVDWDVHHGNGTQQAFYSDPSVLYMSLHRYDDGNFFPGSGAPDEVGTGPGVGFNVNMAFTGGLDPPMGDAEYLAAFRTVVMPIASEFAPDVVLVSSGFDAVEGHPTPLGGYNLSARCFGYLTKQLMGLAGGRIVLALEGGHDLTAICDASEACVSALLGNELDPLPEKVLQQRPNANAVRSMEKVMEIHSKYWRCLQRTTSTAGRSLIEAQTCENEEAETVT

IC50 (HDAC4): 720 ± 210 nM | IC50 (HDAC6): 580 ± 50 nM
SMILES: Cc1ccc(-n2c(SCc3ccc(C(=O)NO)cc3)nc3ccccc3c2=O)cc1 [Compound 5c, N-hydroxy-4-(((4-oxo-3-(p-tolyl)-3,4-dihydroquinazolin-2-yl)thio)methyl)benzamide]
number of colonies (MCF7 and HCT-116 cells; MCF7 and HCT-116, 0.1 μM): significantly reduced | cell anchorage and growth (MCF7 and HCT-116 cells; MCF7 and HCT-116, 1 μM): almost completely arrested
